Assay results taken from ChEMBL document CHEMBL5608141, “Identification of compartment-specific drug sensitivities in CRC organoid-stroma co-cultures” (2024).
Non-standard residues stand in square brackets, D forms with d. Residues, ends and D or L forms follow the SMILES beside them. Arg(Me) = CNC(=N)NCCC[C@H](N)C(=O)O; d3Pal = N[C@H](Cc1cccnc1)C(=O)O; azaGly = NNC(=O)O

What was measured:
Assay type in all cases: functional, Homo sapiens
Design in all cases: dose or concentration left out as unconfirmed
[1] = system: Colon cancer organoid; assay: Identification of compartment-specific drug sensitivities in O06 CRC organoid-stroma F06 CAF co-cultures. Organoid is transduced with Lucferase2-P2A-EGFP lentivirus, fibroblast with Renilla-dsRed lentivirus. Dual-Glo Luciferase assay is used to report viability data.
[2] = system: Colon cancer organoid; assay: Identification of compartment-specific drug sensitivities in O14 CRC organoid-stroma F14 CAF co-cultures. Organoid is transduced with Lucferase2-P2A-EGFP lentivirus, fibroblast with Renilla-dsRed lentivirus. Dual-Glo Luciferase assay is used to report viability data.
[3] = system: Colon cancer organoid; assay: Identification of compartment-specific drug sensitivities in O20 CRC organoid-stroma F20 CAF co-cultures. Organoid is transduced with Lucferase2-P2A-EGFP lentivirus, fibroblast with Renilla-dsRed lentivirus. Dual-Glo Luciferase assay is used to report viability data.
[4] = Transduced with Lucferase2-P2A-EGFP lentivirus
[5] = Transduced with Renilla-dsRed lentivirus

| Structure (SMILES) | Cell Viability [1, 4] [%] | Cell Viability [1, 5] [%] | Cell Viability [2, 4] [%] | Cell Viability [2, 5] [%] | Cell Viability [3, 4] [%] | Cell Viability [3, 5] [%] |
| --- | --- | --- | --- | --- | --- | --- |
| COc1cccc2c1C(=O)c1c(O)c3c(c(O)c1C2=O)CC(O)(C(=O)CO)CC3OC1CC(N)C(O)C(C)O1.Cl (stereo unspecified) | 14.9439 | 235.56 | 3.454 | 89.9373 | 5.3877 | 237.178 |
| O=C(NC[C@@H]1[C@H]2CN(C(=O)OCc3cc(C(F)(F)F)cc(C(F)(F)F)c3)C[C@@H]12)c1ccc2[nH]nnc2c1 [BI 2545] | 82.8507 | 98.3684 | 136.863 | 113.582 | 135.058 | 115.933 |
| CNC(=N)NCCC[C@H](NC(=O)[C@H](CC(C)C)NC(=O)NNC(=O)[C@H](Cc1ccccc1)NC(=O)[C@H](CO)NC(=O)[C@H](CC(N)=O)NC(=O)[C@@H](Cc1cccnc1)NC(=O)[C@H](N)Cc1ccc(O)cc1)C(=O)NCC(N)=O [KISS1-543] (H-[dY][d3Pal]NSF[azaGly]L[Arg(Me)]G-NH2) | 93.1752 | 90.9674 | 105.115 | 104.622 | 101.104 | 120.489 |
| COc1cc(OC)cc(-c2noc(N3CCN(C)C4(CCN(c5ccccc5)CC4)C3)n2)c1 | 67.7845 | 115.277 | 135.567 | 106.85 | 90.427 | 110.491 |
| CC1=C(C)C(=O)C(C(C)(C)CC(=O)N(CCCCSC[C@H]2O[C@@H](n3cnc4c(N)ncnc43)[C@@H]3OC(C)(C)O[C@@H]32)Cc2cccc(-c3ccc(Cl)cc3)c2)=C(C)C1=O | 82.0361 | 129.013 | 94.9972 | 94.497 | 98.0775 | 117.278 |
| Cc1c(N2CCCC2)nc2ccc(Br)cc2c1C(=O)NC[C@H](CCC(=O)O)c1ccccc1Cl [BAY-6672] | 132.373 | 142.298 | 108.299 | 92.2123 | 83.1045 | 119.315 |
| CCNC(=O)c1cc2c(N3CCOCC3C)ccnc2[nH]1 (stereo unspecified) | 130.766 | 119.513 | 143.994 | 130.326 | 144.452 | 100.256 |
| COc1cc(-c2cn([C@H]3CCc4ccccc4N(CC(F)(F)F)C3=O)nn2)ccc1-n1ccc(C)n1 | 66.2416 | 74.3796 | 96.3015 | 79.1491 | 70.0794 | 119.033 |
| CC(=O)c1c(NS(C)(=O)=O)c2cc(-c3ccc(Cl)cc3)c(-c3ccc(Cl)cc3Cl)nc2n(C)c1=O [MRL-CB1-NC] | 117.339 | 76.9916 | 112.083 | 107.66 | 159.821 | 122.581 |
| Nc1ncnc2c1ccn2[C@@H]1O[C@H]([C@H](O)c2ccccc2)[C@@H](O)[C@H]1O | 22.7938 | 108.338 | 25.5953 | 72.0424 | 28.7794 | 179.519 |
| CN1CCN(c2ccnc(NCCc3ccccc3)n2)CC1 [TP-040n] | 57.9985 | 123.721 | 106.261 | 101.91 | 67.1911 | 97.5889 |
| CC1=C(C#N)C(c2ccc3[nH]nc(C)c3c2)C(C#N)=C(C)N1 [BAY-474] | 116.723 | 162.783 | 60.4688 | 119.272 | 81.7867 | 102.241 |
| Cc1cc(CN)cc(C)c1-c1ncn(C)c1-c1ccnc2cc(F)ccc12.Cl | 105.057 | 123.721 | 138.136 | 105.376 | 144.981 | 87.6481 |
| Cn1cc(C2=C(c3cn(C4CCN(Cc5ccccn5)CC4)c4ccccc34)C(=O)NC2=O)c2ccccc21 [ENZASTAURIN] | 65.6638 | 92.7001 | 80.1065 | 85.9175 | 54.6044 | 78.6109 |
| O=C(NOC[C@H](O)CO)c1ccc(F)c(F)c1Nc1ccc(I)cc1F [MIRDAMETINIB] | 8.8965 | 49.9042 | 7.045 | 23.0385 | 3.902 | 83.5811 |
| CC(=O)N1CCC(c2ccc(C(=O)NC(=N)N)cc2C(F)(F)F)CC1 [BI 9627] | 118.657 | 157.583 | 100.11 | 107.329 | 96.0735 | 101.417 |

| Structure (SMILES) | Cell Viability [1, 4] [%] | Cell Viability [1, 5] [%] | Cell Viability [2, 4] [%] | Cell Viability [2, 5] [%] | Cell Viability [3, 4] [%] | Cell Viability [3, 5] [%] |
| --- | --- | --- | --- | --- | --- | --- |
| O=C(NNS(=O)(=O)c1ccccc1F)c1cc(F)cc(-c2ccccn2)c1 [WM-1119] | 97.0333 | 108.11 | 29.5498 | 87.8305 | 69.0433 | 152.012 |
| c1ccc(C2CCN(c3cnc4c(N5CCOCC5)nccn34)CC2)cc1 | 25.484 | 144.176 | 130.379 | 77.7891 | 90.2822 | 108.246 |
| O=C1CCc2cc(Nc3cc(OC4CCOCC4)c([N+](=O)[O-])cc3Cl)ccc2N1 | 74.579 | 100.938 | 98.9348 | 106.803 | 150.133 | 114.972 |
| O=C(NCc1ccccc1)c1ccc(S(=O)(=O)NCc2ccccc2)cc1 | 32.2843 | 131.443 | 108.82 | 110.313 | 89.1581 | 96.8328 |
| CC[C@H](CO)Nc1nc(NCc2ccccc2)c2ncn(C(C)C)c2n1 [SELICICLIB] | 93.234 | 112.199 | 121.256 | 106.182 | 126.177 | 75.3934 |
| CN(C)C(=O)c1ccc(-c2cc(C(=O)N(C)C3CCCC3)no2)cc1O | 126.057 | 129.278 | 137.993 | 111.926 | 123.545 | 110.433 |
| CN([C@@H]1CCc2c(CC(=O)O)c3ccccc3n2C1)S(=O)(=O)c1ccc(F)cc1 [MK-7246] | 70.9731 | 124.085 | 114.74 | 112.48 | 94.6909 | 109.932 |
| Cn1c(=O)[nH]c2cc(N3C(=O)c4cccc5c(CCCO)ccc(c45)C3=O)ccc21 | 115.119 | 110.623 | 148.781 | 92.4291 | 127.541 | 89.8045 |
| O=C(NOCC1CC1)c1ccc(F)c(F)c1Nc1ccc(I)cc1Cl [CI-1040] | 38.2974 | 73.8424 | 35.7635 | 62.5859 | 44.1491 | 195.336 |
| CC[C@H](CC(=O)O)n1c(=O)c2ncccc2n(Cc2cn(C)c3cc(C)cc(C)c23)c1=O [BI-1942] | 119.907 | 136.619 | 102.331 | 109.089 | 108.303 | 100.799 |
| Cc1cnc(-c2cc(Cl)ccc2F)cc1-n1c(=O)n(CC(N)=O)c2ccccc21 [Al11] | 79.8154 | 66.9379 | 90.2433 | 100.795 | 100.628 | 109.542 |
| CNc1nc(Nc2cnn([C@H]3CCN(C4COC4)C[C@@H]3F)c2Cl)ncc1C(F)(F)F | 94.4056 | 87.0484 | 109.423 | 94.4968 | 197.594 | 86.9942 |
| C[C@]1(O)C[C@@H](c2nc(-c3ccc4ccc(-c5ccccc5)nc4c3)c3c(N)nccn32)C1 [LINSITINIB] | 53.0716 | 100.619 | 56.8923 | 65.041 | 60.6188 | 65.9185 |
| CCC(=O)N1CCN(c2ccc(-n3c(=O)ccc4cnc5ccc(-c6cnc7ccccc7c6)cc5c43)cc2C(F)(F)F)CC1 [TORIN1] | 4.705 | 40.1911 | 10.1866 | 12.2493 | 7.451 | 44.8651 |
| Cn1nc(C(=O)NCc2ccc(C(=O)O)cc2)cc1-c1ccc2[nH]ccc2c1 [BI 4395] | 119.737 | 69.3241 | 88.69 | 99.7693 | 100.657 | 92.7545 |
